The values below come from patent publication US11207312B2, “Metallo-beta-lactamase inhibitors and methods of use thereof” (priority 2017, dated 2021).

The target in series [1] is NDM-1 (Klebsiella pneumoniae, UniProt C7C422). Description: biochemical. The format is biochemical. The note with it: CCF2-FA fluorescence assay, 2 hours at 25° C. The method in brief: (§1)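 Each enzyme (final 1 pM NDM-1, 2 pM IMP-1, 30 pM VIM-1) was incubated with test inhibitor (20 μM to 0.00063 μM) and 1.25 μM CCF2-FA for 2 hours at 25° C in zinc-supplemented phosphate buffer, pH 7. Fluorescence at 460 nm was then read and IC50 fitted with four parameters.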

Series [2] concerns the target IMP-1 (Serratia marcescens, UniProt P52699). The series can be described thus: biochemical. The note with it: CCF2-FA fluorescence assay, 2 hours at 25° C.; read-out: IMP1 IC50. The method in brief:
as §1

The target of series [3] is VIM-1 (Pseudomonas aeruginosa (strain ATCC 15692 / DSM 22644 / CIP 104116 / JCM 14847 / LMG 12228 / 1C / PRS 101 / PAO1), UniProt A0A0F7KYQ8). The series can be described thus: biochemical. The note with it: CCF2-FA fluorescence assay, 2 hours at 25° C.; read-out: VIM1 IC50. The gist of the method: as §1
Series [4] concerns the target VIM-2 (Escherichia coli, UniProt Q5U7L7). Description: biochemical. The following applies: CCF2-FA fluorescence assay; read-out: VIM2 IC50.
The subject of series [5] is Escherichia coli expressing NDM-1 (CLB30016). Format: cell-based. The following applies: with imipenem 1 μg/ml; 95% inhibition of bacterial growth. The gist of the method: (§2)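 Colonies from sheep-blood agar plates are resuspended in saline, then diluted 1:100 in 1.1× CAMHB. Bacteria receive imipenem (1 μg/ml) and test compound, then incubate 22–24 h at 35 °C. Potentiation is reported as MITC95 from absorbance.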

For series [6], the system named is Klebsiella pneumoniae expressing VIM-1 (IHMA599644). Format: cell-based. The note with it: with imipenem 1 μg/ml; 95% inhibition of bacterial growth. The method in brief:
as §2

Series [7] relates to Serratia marcescens expressing IMP-1 (CL5741). Format: cell-based. The note with it: with imipenem 1 μg/ml; 95% inhibition of bacterial growth. The gist of the method:
as §2

Series [8] has as its system P. aeruginosa MB9798 (efflux+, IMP-1 plasmid). The note with it: for MB9798 MITC95 P. aeruginosa uM Efflux WT: efflux + (MB9798) strain, imipenem at 2 μg/mL, in the presence of a class A, C, D serine β-lactamase inhibitor closely related to relebactam; for Efflux ratio: fold difference between efflux+ (MB9798) and efflux− (MB9799) strains. The gist of the method:
(§3)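 PAO1-derived isogenic pair (oprD+, inducible AmpC), efflux+ MB5919 or efflux− MB5890 parent, carrying an electroporated IMP-1 plasmid from a clinical isolate. Microbroth MIC with fixed imipenem and/or ceftazidime (usually CLSI breakpoint) plus fixed class A/C inhibitor; MBL inhibitor serially titrated, concentration restoring susceptibility recorded.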

Series [9] deals with P. aeruginosa MB9799 (efflux-, IMP-1 plasmid). Format: cell-based, Pseudomonas aeruginosa. The following applies: efflux − (MB9799) strain; imipenem at 2 μg/mL; in the presence of a class A, C, D serine β-lactamase inhibitor closely related to relebactam. The gist of the method: as §3

Molecules are shown by their SMILES.

The term IC50 denotes the concentration that gives 50% inhibition.

Sequence of NDM-1 (C7C422 whole entry, looked up, species assumed): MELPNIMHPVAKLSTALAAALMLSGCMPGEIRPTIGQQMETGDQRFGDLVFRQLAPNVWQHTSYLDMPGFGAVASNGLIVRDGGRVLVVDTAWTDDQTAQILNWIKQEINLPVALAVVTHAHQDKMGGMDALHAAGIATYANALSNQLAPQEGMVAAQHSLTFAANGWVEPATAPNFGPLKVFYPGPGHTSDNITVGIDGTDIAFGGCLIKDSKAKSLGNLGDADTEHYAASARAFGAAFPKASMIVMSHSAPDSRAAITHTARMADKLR
Sequence of IMP-1 (P52699 whole entry, looked up, species assumed): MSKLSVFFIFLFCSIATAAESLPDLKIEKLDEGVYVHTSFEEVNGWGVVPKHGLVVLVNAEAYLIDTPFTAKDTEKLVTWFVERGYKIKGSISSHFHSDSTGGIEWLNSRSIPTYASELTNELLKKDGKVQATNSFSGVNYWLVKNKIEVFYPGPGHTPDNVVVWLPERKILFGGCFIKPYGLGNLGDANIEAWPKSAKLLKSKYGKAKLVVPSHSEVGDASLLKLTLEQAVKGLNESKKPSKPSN

Regarding `NCCCC1CCN(c2ccc(S(=O)(=O)NC[C@H](O)CN)c(S(N)(=O)=O)c2-c2nn[nH]n2)CC1` [Example 193, (R)-N1-(3-amino-2-hydroxypropyl)-4-(4-(3-aminopropyl)piperidin-1-yl)-3-(2H-tetrazol-5-yl)benzene-1,2-disulfonamide], the IC50 was determined as 0.48 nM in series [1], 0.67 nM in series [2], 0.075 nM in [3] and 0.75 nM in series [4]. In addition, the “CLB30016 E. coli MITC95 NDM” value in [5] was found to be 1.56 µM. For the same compound, in [6], the “IHMA599644 K. pneumoniae MITC95 VIM” value turned out to be 1.56 µM. Besides, the “CL5741 S. marcescens MITC95 IMP” value in series [7] is 1.56 µM. Further, the “MB9798 MITC95 P. aeruginosa uM Efflux WT” value in series [8] came to 0.78 µM. In [8], the Efflux ratio is listed as 1.00. The “MB9799 MITC95 P. aeruginosa uM Efflux Mutant” value in series [9] stood at 0.78 µM.

As for `NS(=O)(=O)c1c(S(=O)(=O)N[C@@H]2CCNC2)ccc(N2CCC(S(N)(=O)=O)CC2)c1-c1nnn[nH]1` [Example 80, N1-[(3R)-pyrrolidin-3-yl]-4-(4-sulfamoylpiperidin-1-yl)-3-(1H-tetrazol-5-yl)benzene-1,2-disulfonamide], the IC50 in series [1] came out at 0.3 nM; in series [2], 0.43 nM; in series [3], 0.13 nM; in series [4] it was 0.66 nM. Further, the “CLB30016 E. coli MITC95 NDM” value in series [5] was determined as 1.56 µM. Moreover, the “IHMA599644 K. pneumoniae MITC95 VIM” value in series [6] came out at 3.13 µM. For the same compound, the “CL5741 S. marcescens MITC95 IMP” value in [7] came out at 0.78 µM. The “MB9798 MITC95 P. aeruginosa uM Efflux WT” value in series [8] was determined as 1.56 µM. Besides, the Efflux ratio in series [8] turned out to be 1.00. The “MB9799 MITC95 P. aeruginosa uM Efflux Mutant” value in [9] came to 1.56 µM.

For the compound `NC[C@@H](O)CNS(=O)(=O)c1ccc(N[C@H]2C[C@@H](N)C2)c(-c2nnn[nH]2)c1S(N)(=O)=O` [Example 143, N1-((R)-3-amino-2-hydroxypropyl)-4-(((1s,3S)-3-aminocyclobutyl)amino)-3-(1H-tetrazol-5-yl)benzene-1,2-disulfonamide], the IC50 in series [1] stood at 111 nM; in series [2] it was 70.4 nM; in [3], 100 nM; in [4] it was 200 nM. Moreover, in series [5], the “CLB30016 E. coli MITC95 NDM” value came out at 1.56 µM. The “IHMA599644 K. pneumoniae MITC95 VIM” value in series [6] turned out to be 12.50 µM. Besides, the “CL5741 S. marcescens MITC95 IMP” value in series [7] stood at 1.56 µM. Moreover, the “MB9798 MITC95 P. aeruginosa uM Efflux WT” value in series [8] came out at 6.25 µM. Besides, the Efflux ratio in series [8] is given as 2.00. In [9], the “MB9799 MITC95 P. aeruginosa uM Efflux Mutant” value is 3.13 µM.

Turning to `NS(=O)(=O)c1c(S(=O)(=O)C2CNC2)ccc(N2CCC(O)CC2)c1-c1nnn[nH]1` [Example 31, 6-(azetidin-3-ylsulfonyl)-3-(4-hydroxypiperidin-1-yl)-2-(1H-tetrazol-5-yl)benzenesulfonamide], the IC50 was 1.67 nM in series [1], 1.89 nM in series [2], 0.89 nM in [3] and 3.36 nM in series [4]. The “CLB30016 E. coli MITC95 NDM” value in [5] worked out at 1.56 µM. In addition, the “IHMA599644 K. pneumoniae MITC95 VIM” value in series [6] amounted to 3.13 µM. For the same compound, the “CL5741 S. marcescens MITC95 IMP” value in series [7] was found to be 3.13 µM. Besides, the “MB9798 MITC95 P. aeruginosa uM Efflux WT” value in series [8] came to 6.25 µM. Further, in [8], the Efflux ratio is given as 4.00. The “MB9799 MITC95 P. aeruginosa uM Efflux Mutant” value in series [9] was 1.56 µM.

As to `NS(=O)(=O)c1c(S(=O)(=O)N[C@@H]2CCNC2)ccc(N2CC[C@H](CO)C2)c1-c1nnn[nH]1` [Example 96, 4-[(3S)-3-(hydroxymethyl)pyrrolidin-1-yl]-N1-[(3R)-pyrrolidin-3-yl]-3-(1H-tetrazol-5-yl)benzene-1,2-disulfonamide], the IC50 in series [1] came out at 1.21 nM; in series [2], 0.98 nM; in series [3], 0.53 nM; in [4], 1.02 nM. In addition, the “CLB30016 E. coli MITC95 NDM” value in [5] was found to be 3.13 µM. Further, the “IHMA599644 K. pneumoniae MITC95 VIM” value in [6] was 6.25 µM. In addition, the “CL5741 S. marcescens MITC95 IMP” value in series [7] stood at 1.56 µM. For the same compound, the “MB9798 MITC95 P. aeruginosa uM Efflux WT” value in series [8] turned out to be 3.13 µM. The Efflux ratio in [8] is given as 2.00. Also, the “MB9799 MITC95 P. aeruginosa uM Efflux Mutant” value in series [9] was determined as 1.56 µM.

As to `NCC=C1CCN(c2ccc(S(=O)(=O)NC[C@H](O)CN)c(S(N)(=O)=O)c2-c2nn[nH]n2)CC1` [Example 204, (R)—N1-(3-amino-2-hydroxypropyl)-4-(4-(2-aminoethylidene)piperidin-1-yl)-3-(2H-tetrazol-5-yl)benzene-1,2-disulfonamide], the IC50 in series [1] came to 0.97 nM; in [2], 1.55 nM; in [3], 0.16 nM; in series [4] it was 3.44 nM. Besides, in series [5], the “CLB30016 E. coli MITC95 NDM” value is 0.78 µM. The “IHMA599644 K. pneumoniae MITC95 VIM” value in series [6] came to 1.56 µM. The “CL5741 S. marcescens MITC95 IMP” value in series [7] worked out at 1.56 µM. In series [8], the “MB9798 MITC95 P. aeruginosa uM Efflux WT” value stood at 0.78 µM. For the same compound, in [8], the Efflux ratio is on record as 1.00. Also, in [9], the “MB9799 MITC95 P. aeruginosa uM Efflux Mutant” value was 0.78 µM.

Take `NS(=O)(=O)c1c(S(=O)(=O)N[C@@H]2CCNC2)ccc(N2CCC(CCO)CC2)c1-c1nnn[nH]1` [Example 98, 4-[4-(2-hydroxyethyl)piperidin-1-yl]-N1-[(3R)-pyrrolidin-3-yl]-3-(1H-tetrazol-5-yl)benzene-1,2-disulfonamide]: the IC50 in series [1] is 0.08 nM; in series [2], 0.13 nM; in series [3], 0.15 nM; in series [4] it was 0.59 nM. Also, the “CLB30016 E. coli MITC95 NDM” value in series [5] amounted to 12.50 µM. Besides, the “IHMA599644 K. pneumoniae MITC95 VIM” value in [6] amounted to 12.50 µM. Further, in series [7], the “CL5741 S. marcescens MITC95 IMP” value was 6.25 µM. Further, in [8], the “MB9798 MITC95 P. aeruginosa uM Efflux WT” value amounted to 3.13 µM. The Efflux ratio in series [8] was found to be 1.00. Further, the “MB9799 MITC95 P. aeruginosa uM Efflux Mutant” value in series [9] was found to be 3.13 µM.

As for `NC1(CO)CCN(c2ccc(S(=O)(=O)N[C@@H]3CCNC3)c(S(N)(=O)=O)c2-c2nnn[nH]2)C1` (stereo partly drawn) [Example 84, 4-[3-amino-3-(hydroxymethyl)pyrrolidin-1-yl]-N1-[(3R)-pyrrolidin-3-yl]-3-(1H-tetrazol-5-yl)benzene-1,2-disulfonamide], the IC50 in series [1] turned out to be 19.7 nM; in [2], 33 nM; in series [3], 7.27 nM; in series [4] it was 46.9 nM. Further, the “CLB30016 E. coli MITC95 NDM” value in series [5] is 0.78 µM. In addition, the “IHMA599644 K. pneumoniae MITC95 VIM” value in series [6] was 1.56 µM. Moreover, the “CL5741 S. marcescens MITC95 IMP” value in [7] amounted to 1.56 µM. The “MB9798 MITC95 P. aeruginosa uM Efflux WT” value in series [8] is 6.25 µM. Further, the Efflux ratio in [8] is reported as 4.00. Also, in series [9], the “MB9799 MITC95 P. aeruginosa uM Efflux Mutant” value worked out at 1.56 µM.

On to `NC[C@@H](O)CNS(=O)(=O)c1ccc(N2CCC(C3COC(=O)N3)CC2)c(-c2nn[nH]n2)c1S(N)(=O)=O` (stereo partly drawn) [Example 177, N1-((R)-3-amino-2-hydroxypropyl)-4-(4-(2-oxooxazolidin-4-yl)piperidin-1-yl)-3-(2H-tetrazol-5-yl)benzene-1,2-disulfonamide], for which the half-maximal inhibitory concentration (IC50) came to 0.57 nM in series [1], 0.19 nM in series [2], 0.15 nM in [3] and 0.66 nM in series [4]. Moreover, in series [5], the “CLB30016 E. coli MITC95 NDM” value is 6.25 µM. In addition, the “IHMA599644 K. pneumoniae MITC95 VIM” value in series [6] stood at 6.25 µM. In addition, the “CL5741 S. marcescens MITC95 IMP” value in series [7] was 3.13 µM. The “MB9798 MITC95 P. aeruginosa uM Efflux WT” value in series [8] stood at 1.56 µM. The Efflux ratio in [8] is reported as 1.00. In addition, in series [9], the “MB9799 MITC95 P. aeruginosa uM Efflux Mutant” value came to 1.56 µM.

As to `NS(=O)(=O)c1c(S(=O)(=O)C2CNC2)ccc(N2CCN(CCCO)CC2)c1-c1nnn[nH]1` [Example 53, 6-(azetidin-3-ylsulfonyl)-3-[4-(3-hydroxypropyl)piperazin-1-yl]-2-(1H-tetrazol-5-yl)benzenesulfonamide], the IC50 amounted to 8.79 nM in series [1], 7.81 nM in series [2], 25.1 nM in series [3] and 35.5 nM in [4]. Moreover, in series [5], the “CLB30016 E. coli MITC95 NDM” value turned out to be 0.39 µM. Besides, the “IHMA599644 K. pneumoniae MITC95 VIM” value in [6] amounted to 3.13 µM. Further, in series [7], the “CL5741 S. marcescens MITC95 IMP” value was determined as 0.39 µM. In addition, the “MB9798 MITC95 P. aeruginosa uM Efflux WT” value in [8] was determined as 6.25 µM. In addition, the Efflux ratio in series [8] turned out to be 4.00. In addition, in series [9], the “MB9799 MITC95 P. aeruginosa uM Efflux Mutant” value came out at 1.56 µM.
